{"source": "paper PMC5340297", "about": "(Bioorganic & medicinal chemistry letters, 2016)", "key": {"rM4": {"molecular_target": "T1, rM4 (Rattus norvegicus, UniProt P08485)", "T1 sequence (P08485 1-478)": "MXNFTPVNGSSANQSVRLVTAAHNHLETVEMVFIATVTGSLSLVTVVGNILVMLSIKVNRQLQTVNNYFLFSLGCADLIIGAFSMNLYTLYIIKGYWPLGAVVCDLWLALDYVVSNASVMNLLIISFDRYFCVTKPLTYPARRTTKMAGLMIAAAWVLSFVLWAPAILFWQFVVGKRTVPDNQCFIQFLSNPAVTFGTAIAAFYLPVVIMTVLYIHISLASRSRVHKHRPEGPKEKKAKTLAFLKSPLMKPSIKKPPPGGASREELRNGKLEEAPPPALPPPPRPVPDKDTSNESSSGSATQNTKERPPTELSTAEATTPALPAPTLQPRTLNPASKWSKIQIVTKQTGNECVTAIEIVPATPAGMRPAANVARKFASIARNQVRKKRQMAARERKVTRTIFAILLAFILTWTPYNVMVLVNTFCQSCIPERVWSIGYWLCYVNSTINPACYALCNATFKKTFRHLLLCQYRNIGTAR", "test": "Calcium mobilization assay with rM4/Gqi5-CHO cells, EC20 acetylcholine", "type": "cell-based", "conditions": "9a vs 6"}, "[1]": {"test": "Rat brain:plasma partition coefficients", "type": "in vivo", "conditions": "0.25 hr after IV cassette dose (0.20-0.25 mg/kg), male SD rat, n=1"}, "Cytochrome P450 2D6": {"molecular_target": "Cytochrome P450 2D6 (Homo sapiens, UniProt P10635)", "sequence (P10635 whole entry)": "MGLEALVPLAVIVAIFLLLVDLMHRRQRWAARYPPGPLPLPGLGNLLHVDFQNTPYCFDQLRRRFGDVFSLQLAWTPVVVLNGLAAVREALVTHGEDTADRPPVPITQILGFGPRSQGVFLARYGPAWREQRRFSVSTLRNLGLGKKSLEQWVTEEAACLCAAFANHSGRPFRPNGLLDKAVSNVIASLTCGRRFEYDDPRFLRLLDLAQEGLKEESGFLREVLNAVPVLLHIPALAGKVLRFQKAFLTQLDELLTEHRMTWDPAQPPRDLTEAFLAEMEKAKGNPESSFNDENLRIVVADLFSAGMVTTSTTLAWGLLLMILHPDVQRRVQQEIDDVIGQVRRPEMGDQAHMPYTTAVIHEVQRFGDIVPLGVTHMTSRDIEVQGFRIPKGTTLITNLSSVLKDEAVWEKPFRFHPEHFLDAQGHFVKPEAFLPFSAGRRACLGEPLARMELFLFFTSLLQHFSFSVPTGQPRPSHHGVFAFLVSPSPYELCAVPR", "test": "Cytochrome P450 inhibition, 2D6", "type": "in vitro ADME"}, "rat M1-3,5": {"system": "rat M1-3,5", "test": "Muscarinic subtype selectivity, rat M1-3,5", "type": "cell-based", "conditions": "read-out: EC50 at rat M1-3,5; no activity"}, "human M1-3,5": {"system": "human M1-3,5", "test": "Muscarinic subtype selectivity, human M1-3,5", "type": "cell-based", "conditions": "read-out: EC50 at human M1-3,5; no activity"}, "[2]": {"system": "68 GPCRs, ion channels and transporter", "test": "Eurofin Lead Profiling radioligand binding panel", "conditions": "10 μM"}, "hCav1 2": {"molecular_target": "hCav1 2 (Homo sapiens, UniProt Q13936)", "test": "Off-target full CRC, hCav1 2", "type": "binding"}, "DAT": {"molecular_target": "DAT (Homo sapiens, UniProt Q01959)", "sequence (Q01959 whole entry, species assumed)": "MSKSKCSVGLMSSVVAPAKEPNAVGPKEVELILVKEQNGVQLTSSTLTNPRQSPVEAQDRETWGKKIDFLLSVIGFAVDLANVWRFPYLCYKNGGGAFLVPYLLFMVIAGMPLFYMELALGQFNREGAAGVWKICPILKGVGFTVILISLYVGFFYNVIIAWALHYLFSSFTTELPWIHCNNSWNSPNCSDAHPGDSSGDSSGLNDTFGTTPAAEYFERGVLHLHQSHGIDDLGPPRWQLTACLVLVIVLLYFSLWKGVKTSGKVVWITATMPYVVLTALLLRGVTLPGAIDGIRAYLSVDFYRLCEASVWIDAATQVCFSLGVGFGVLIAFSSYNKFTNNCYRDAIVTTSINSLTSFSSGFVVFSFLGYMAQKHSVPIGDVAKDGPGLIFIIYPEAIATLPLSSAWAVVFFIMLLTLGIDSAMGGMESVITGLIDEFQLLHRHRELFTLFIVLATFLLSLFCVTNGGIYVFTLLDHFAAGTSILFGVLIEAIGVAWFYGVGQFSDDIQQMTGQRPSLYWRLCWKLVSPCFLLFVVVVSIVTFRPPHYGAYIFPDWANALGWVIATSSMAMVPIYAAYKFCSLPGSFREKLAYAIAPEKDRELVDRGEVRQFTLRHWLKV", "test": "Off-target full CRC, DAT", "type": "binding"}, "SERT": {"molecular_target": "SERT (Homo sapiens, UniProt P31645)", "sequence (P31645 whole entry, species assumed)": "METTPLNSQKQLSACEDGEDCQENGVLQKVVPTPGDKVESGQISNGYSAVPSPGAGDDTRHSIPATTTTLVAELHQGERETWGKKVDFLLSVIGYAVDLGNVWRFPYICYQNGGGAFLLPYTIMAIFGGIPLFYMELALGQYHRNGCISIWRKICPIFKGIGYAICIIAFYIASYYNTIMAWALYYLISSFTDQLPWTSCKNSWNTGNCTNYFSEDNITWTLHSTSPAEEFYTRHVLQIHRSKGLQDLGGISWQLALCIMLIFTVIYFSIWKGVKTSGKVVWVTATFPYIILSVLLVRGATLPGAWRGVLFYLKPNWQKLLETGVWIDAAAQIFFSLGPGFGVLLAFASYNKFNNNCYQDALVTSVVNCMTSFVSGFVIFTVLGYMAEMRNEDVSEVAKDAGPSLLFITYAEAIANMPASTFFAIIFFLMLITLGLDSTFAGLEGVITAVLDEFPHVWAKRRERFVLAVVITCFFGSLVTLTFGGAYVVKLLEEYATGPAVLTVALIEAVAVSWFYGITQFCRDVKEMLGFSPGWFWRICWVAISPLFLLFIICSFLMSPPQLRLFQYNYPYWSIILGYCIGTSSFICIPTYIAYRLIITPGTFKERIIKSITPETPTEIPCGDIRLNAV", "test": "Off-target full CRC, SERT", "type": "binding"}, "5-HT3": {"molecular_target": "T2, 5-HT3 (Homo sapiens, UniProt P46098)", "T2 sequence (P46098 24-478)": "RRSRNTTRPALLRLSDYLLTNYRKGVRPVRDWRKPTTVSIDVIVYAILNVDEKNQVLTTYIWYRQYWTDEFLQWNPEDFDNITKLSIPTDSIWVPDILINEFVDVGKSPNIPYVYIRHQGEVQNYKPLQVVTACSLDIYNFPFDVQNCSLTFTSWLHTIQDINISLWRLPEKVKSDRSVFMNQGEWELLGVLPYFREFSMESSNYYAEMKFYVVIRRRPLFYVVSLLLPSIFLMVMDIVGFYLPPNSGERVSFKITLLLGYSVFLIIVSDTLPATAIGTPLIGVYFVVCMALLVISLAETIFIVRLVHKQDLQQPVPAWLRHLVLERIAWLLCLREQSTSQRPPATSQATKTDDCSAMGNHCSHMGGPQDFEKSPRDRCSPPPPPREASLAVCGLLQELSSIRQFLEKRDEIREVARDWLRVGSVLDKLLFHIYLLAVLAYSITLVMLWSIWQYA", "test": "Off-target full CRC, 5-HT3", "type": "binding"}, "[3]": {"system": "amphetamine-induced hyperlocomotion", "conditions": "rat, 0.75 mg/kg amphetamine s.c., n = 7-8 per dose group"}, "In vitro clearance, rat": {"test": "In vitro clearance, rat", "conditions": "predicted"}, "[4]": {"test": "In vitro clearance, human", "conditions": "predicted"}, "Ghrelin receptor": {"molecular_target": "Ghrelin receptor (Homo sapiens, UniProt Q92847)", "sequence (Q92847 whole entry, species assumed)": "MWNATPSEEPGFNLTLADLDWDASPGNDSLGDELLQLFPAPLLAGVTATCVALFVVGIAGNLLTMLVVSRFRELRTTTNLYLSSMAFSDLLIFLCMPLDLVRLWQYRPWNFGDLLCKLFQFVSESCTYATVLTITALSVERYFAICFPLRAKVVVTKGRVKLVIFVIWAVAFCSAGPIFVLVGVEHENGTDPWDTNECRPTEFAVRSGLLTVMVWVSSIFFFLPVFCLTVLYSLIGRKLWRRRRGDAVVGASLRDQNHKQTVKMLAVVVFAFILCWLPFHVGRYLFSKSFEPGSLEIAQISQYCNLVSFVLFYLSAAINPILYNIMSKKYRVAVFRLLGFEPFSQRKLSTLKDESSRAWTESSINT", "test": "Off-target full CRC, Ghrelin receptor", "type": "binding"}, "BDZ": {"system": "BDZ", "test": "Off-target full CRC, BDZ", "type": "binding"}, "GABA": {"system": "GABA", "test": "Off-target full CRC, GABA", "type": "binding"}, "[5]": {"system": "amphetamine-induced hyperlocomotion", "conditions": "cited from earlier work"}, "M4": {"system": "M4", "test": "M4 PAM potency, 6 compared with 2", "type": "cell-based", "conditions": "6 vs 2"}, "[6]": {"test": "Free fraction, 6 compared with 2", "type": "in vitro ADME", "conditions": "6 vs 2"}}}
{"smiles": "CSc1ccc(CNC(=O)c2sc3nnc(C)c(C)c3c2N)cc1", "note": "[9a]", "values": [{"measurement": "Fold increase in rat M4 PAM potency relative to 6", "setting": "rM4", "value": "~10", "unit": "fold"}]}
{"smiles": "Cc1nnc2sc(C(=O)NCc3ccc(S(=O)(=O)CF)cc3)c(N)c2c1C", "note": "[9i]", "values": [{"measurement": "Rat Kp (total brain:plasma partition coefficient)", "setting": "[1]", "value": "not detected in the CNS"}]}
{"smiles": "Cc1nnc2sc(C(=O)NCc3ccc(S(=O)(=O)C(F)F)cc3)c(N)c2c1C", "note": "[9j]", "values": [{"measurement": "Inhibition of CYP 2D6 (in words)", "setting": "Cytochrome P450 2D6", "value": "weak inhibition"}, {"measurement": "EC50", "setting": "rat M1-3,5", "value": "> 30", "unit": "µM"}, {"measurement": "EC50", "setting": "human M1-3,5", "value": "> 30", "unit": "µM"}, {"measurement": "% inhibition at multiple off-targets in the Eurofin panel", "setting": "[2]", "value": "> 50", "unit": "%"}, {"measurement": "hCav1 2 ligand potency (full CRC)", "setting": "hCav1 2", "value": 5.7, "unit": "µM"}, {"measurement": "DAT ligand potency (full CRC)", "setting": "DAT", "value": 0.175, "unit": "µM"}, {"measurement": "SERT ligand potency (full CRC)", "setting": "SERT", "value": 0.6, "unit": "µM"}, {"measurement": "5-HT3 ligand potency (full CRC)", "setting": "5-HT3", "value": 1.6, "unit": "µM"}, {"measurement": "Full dose response AHL, result in words", "setting": "[3]", "value": "efficacious in vivo"}, {"measurement": "CLHEP, rat", "setting": "In vitro clearance, rat", "value": 28.1, "unit": "mL/min/kg"}, {"measurement": "CLHEP, human", "setting": "[4]", "value": 9.34, "unit": "mL/min/kg"}]}
{"smiles": "Cc1nnc2sc(C(=O)NCc3ccc(S(F)(F)(F)(F)F)cc3)c(N)c2c1C", "note": "[9l]", "values": [{"measurement": "Inhibition of CYP 2D6 (in words)", "setting": "Cytochrome P450 2D6", "value": "weak inhibition"}, {"measurement": "EC50", "setting": "rat M1-3,5", "value": "> 30", "unit": "µM"}, {"measurement": "EC50", "setting": "human M1-3,5", "value": "> 30", "unit": "µM"}, {"measurement": "% inhibition at multiple off-targets in the Eurofin panel", "setting": "[2]", "value": "> 50", "unit": "%"}, {"measurement": "DAT ligand potency (full CRC)", "setting": "DAT", "value": 0.15, "unit": "µM"}, {"measurement": "SERT ligand potency (full CRC)", "setting": "SERT", "value": 0.52, "unit": "µM"}, {"measurement": "5-HT3 ligand potency (full CRC)", "setting": "5-HT3", "value": 1.5, "unit": "µM"}, {"measurement": "Ghrelin receptor ligand potency (full CRC)", "setting": "Ghrelin receptor", "value": 6.5, "unit": "µM"}, {"measurement": "BDZ ligand potency (full CRC)", "setting": "BDZ", "value": 1.5, "unit": "µM"}, {"measurement": "GABA ligand potency (full CRC)", "setting": "GABA", "value": 2.1, "unit": "µM"}, {"measurement": "Full dose response AHL, result in words", "setting": "[3]", "value": "efficacious in vivo"}, {"measurement": "CLHEP, rat", "setting": "In vitro clearance, rat", "value": 40.5, "unit": "mL/min/kg"}, {"measurement": "CLHEP, human", "setting": "[4]", "value": 15.0, "unit": "mL/min/kg"}]}
{"smiles": "Cc1nnc2sc(C(=O)NCc3ccc(S(=O)(=O)C(F)(F)F)cc3)c(N)c2c1C", "note": "[compound 5]", "values": [{"measurement": "EC50", "setting": "rat M1-3,5", "value": "> 30", "unit": "µM"}, {"measurement": "EC50", "setting": "human M1-3,5", "value": "> 30", "unit": "µM"}, {"measurement": "% inhibition at any of the 68 targets in the Eurofin panel", "setting": "[2]", "value": "≤ 50", "unit": "%"}, {"measurement": "% reversal in AHL (previously reported)", "setting": "[5]; 10 mg/kg p.o.", "value": 46, "unit": "%"}, {"measurement": "Minimum effective dose (MED) in AHL", "setting": "[5]; p.o.", "value": 3, "unit": "mg/kg"}, {"measurement": "CLHEP, rat", "setting": "In vitro clearance, rat", "value": 28.4, "unit": "mL/min/kg"}, {"measurement": "CLHEP, human", "setting": "[4]", "value": 10.2, "unit": "mL/min/kg"}]}
{"smiles": "COc1ccc(CNC(=O)c2sc3nnc(C)c(C)c3c2N)cc1", "note": "[compound 6]", "values": [{"measurement": "Fold enhancement of M4 PAM potency relative to 2", "setting": "M4", "value": 4, "unit": "fold"}, {"measurement": "Fold increase of free fraction relative to 2", "setting": "[6]", "value": "up to 9 fold"}]}
